These results are taken from patent US11986471B2, “Compounds and methods of use” (Tango Therapeutics, Inc., priority 2018, dated 2024).

One assay concerns HAP1 MTAP-deleted. The experiment in a line: SDMA in-cell western assay, HAP1 MTAP-deleted cell line. It is filed as cell-based. The following applies: for IC50: Homo sapiens, HAP1 MTAP-deleted cell line; for MTAP Intact/Deleted Ratio: IC50 ratio HAP1 MTAP-intact / HAP1 MTAP-deleted. Put shortly:
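Symmetric dimethylarginine (SDMA) levels were measured by in-cell western in MTAP-null HAP1 cells, one half of an MTAP-isogenic pair whose partner line expresses endogenous MTAP. Compound potency is reported as IC50.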

In assay [1] the target is T1, PRMT5 (Homo sapiens, UniProt O14744).
T1 construct: purchased Viva (custom protein)
The experiment in a line: PRMT5 IC50 assay in the presence of SAM as cofactor. The assay is classed as biochemical. Put shortly: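 IC50 values were measured against human PRMT5 with SAM, with MTA, or with no cofactor. Ki was derived from IC50 as Ki=IC50/1.5 with SAM and Ki=IC50/13.5 with MTA, and the Ki(SAM)/Ki(MTA) ratio was then taken.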

Another assay deals with HAP1 MTAP-intact. The experiment in a line: SDMA in-cell western assay, HAP1 MTAP-intact cell line. It is filed as cell-based. Conditions: Homo sapiens. Put shortly: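 Symmetric dimethylarginine (SDMA) levels were measured by in-cell western in an isogenic HAP1 pair, one expressing endogenous MTAP and one MTAP-null, and IC50 values were derived for each line. Compounds whose IC50 ratio between the lines is 3-fold or more are classed as MTAP-selective.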

Assay [2] concerns the target T1, PRMT5. The experiment in a line: PRMT5 IC50 assay with no cofactor. It is filed as biochemical. Put shortly:
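Ki conversion: SAM arm, Ki=IC50/1.5; MTA arm, Ki=IC50/13.5. No-cofactor arm reported as IC50 only. Selectivity expressed as Ki(SAM)/Ki(MTA).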

Assay [3] has as its target T1, PRMT5. Description: PRMT5 IC50 assay in the presence of MTA as cofactor. It is filed as biochemical. The following applies: for IC50: PRMT5, MTA as cofactor. In outline:
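Each compound is tested on PRMT5 in the presence of SAM, of MTA, and without any cofactor. Ki values are then back-calculated using fixed factors of 1.5 (SAM) and 13.5 (MTA), and the two Ki values are compared as a ratio.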

[4] abbreviates: ratio between the Ki in the presence of SAM and the Ki in the presence of MTA.
Setting [5] is: ratio between Ki in the presence of SAM and Ki in the presence of MTA.

T1 sequence (O14744 whole entry): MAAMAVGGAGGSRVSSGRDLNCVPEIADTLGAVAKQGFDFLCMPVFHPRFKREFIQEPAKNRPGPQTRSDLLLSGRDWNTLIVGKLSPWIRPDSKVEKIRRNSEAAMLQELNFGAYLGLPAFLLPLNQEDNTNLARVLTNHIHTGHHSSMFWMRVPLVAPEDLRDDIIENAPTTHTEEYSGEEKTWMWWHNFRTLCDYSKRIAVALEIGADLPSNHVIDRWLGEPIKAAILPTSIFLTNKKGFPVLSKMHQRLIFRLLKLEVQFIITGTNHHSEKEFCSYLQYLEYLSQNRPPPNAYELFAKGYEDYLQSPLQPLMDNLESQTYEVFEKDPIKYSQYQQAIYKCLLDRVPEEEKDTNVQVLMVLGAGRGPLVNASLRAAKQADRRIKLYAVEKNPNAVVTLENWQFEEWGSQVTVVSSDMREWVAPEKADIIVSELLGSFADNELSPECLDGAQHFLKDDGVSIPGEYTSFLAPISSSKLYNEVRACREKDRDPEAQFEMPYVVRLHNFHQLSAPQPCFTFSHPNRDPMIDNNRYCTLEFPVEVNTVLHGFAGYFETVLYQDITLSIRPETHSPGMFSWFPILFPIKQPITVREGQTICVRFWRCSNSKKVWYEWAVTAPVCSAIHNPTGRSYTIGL
T1 sequence (Q9BQA1 whole entry partner): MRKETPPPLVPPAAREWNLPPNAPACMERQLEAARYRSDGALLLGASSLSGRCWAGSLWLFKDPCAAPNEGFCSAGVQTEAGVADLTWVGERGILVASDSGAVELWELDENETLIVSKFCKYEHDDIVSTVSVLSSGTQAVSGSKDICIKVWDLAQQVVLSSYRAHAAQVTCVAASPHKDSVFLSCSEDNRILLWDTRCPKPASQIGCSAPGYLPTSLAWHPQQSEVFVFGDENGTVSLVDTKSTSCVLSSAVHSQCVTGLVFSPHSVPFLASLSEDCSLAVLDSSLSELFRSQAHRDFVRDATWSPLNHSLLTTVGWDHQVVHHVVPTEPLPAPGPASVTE

Turning to `COCCN(C)c1cc(C(=O)NC[C@H](O)CN2CCc3c(ccc(OCc4ocnc4C)c3C)C2)cc(NC2CCN(C(C)=O)CC2)n1` [Compound 592], the IC50 (commonly the midpoint of a concentration-inhibition curve) was < 1000 nM in the assay with HAP1 MTAP-deleted; 50 to 500 nM on PRMT5 [1]; ≥ 10000 nM in the assay on HAP1 MTAP-intact; 500 to 5000 nM on PRMT5 [2]; 50 to 500 nM on PRMT5 [3]. Also, the “MTAP Intact/Deleted Ratio” value with HAP1 MTAP-deleted is “A* (an IC50 ratio greater than or equal to 10 fold between the IC50 in the HAP1 MTAP-intact cell line and the HAP1 MTAP-deleted cell line)”. Further, the “SAM/MTA Ratio” value at PRMT5 [3] (setting [4]) is “A (a Ki ratio greater than or equal to 10 fold between the Ki in the presence of SAM and the Ki in the presence of MTA)”.
`O=C(NC[C@H](O)CN1CCc2cc(OCc3cnco3)ccc2C1)c1ccnc(NC2CCN(C(=O)C3CC3)CC2)c1` [Compound 450, 2-[[1-(cyclopropanecarbonyl)-4-piperidyl]amino]-N-[(2S)-2-hydroxy-3-[6-(oxazol-5-ylmethoxy)-3,4-dihydro-1H-isoquinolin-2-yl]propyl]pyridine-4-carboxamide]: the IC50 was < 1000 nM in the assay on HAP1 MTAP-deleted; 50 to 500 nM at PRMT5 [1]; ≥ 10000 nM with HAP1 MTAP-intact; 500 to 5000 nM against PRMT5 [2]; 50 to 500 nM at PRMT5 [3]. Further, the “MTAP Intact/Deleted Ratio” value in the assay with HAP1 MTAP-deleted is “A* (an IC50 ratio greater than or equal to 10 fold between the IC50 in the HAP1 MTAP-intact cell line and the HAP1 MTAP-deleted cell line)”. The “SAM/MTA Ratio” value at PRMT5 [3] (setting [4]) is “A (a Ki ratio greater than or equal to 10 fold between the Ki in the presence of SAM and the Ki in the presence of MTA)”.
For `COc1ccc(C(=O)N2CCc3cc(C(=O)NC[C@H](O)CN4CCc5c(ccc(OCc6ocnc6C)c5C)C4)ccc3C2)cc1` [Compound 533, N-[(2S)-2-hydroxy-3-{5-methyl-6-[(4-methyl-1,3-oxazol-5-yl)methoxy]-1,2,3,4-tetrahydroisoquinolin-2-yl}propyl]-2-(4-methoxybenzoyl)-1,2,3,4-tetrahydroisoquinoline-6-carboxamide], the IC50 was 1000 to 10000 nM in the assay with HAP1 MTAP-deleted; 50 to 500 nM at PRMT5 [1]; ≥ 10000 nM in the assay with HAP1 MTAP-intact; ≥ 5000 nM against PRMT5 [2]; 50 to 500 nM on PRMT5 [3]. Besides, the “MTAP Intact/Deleted Ratio” value in the assay with HAP1 MTAP-deleted was “C* (an IC50 ratio of less than 3 fold between the IC50 in the HAP1 MTAP-intact cell line and the HAP1 MTAP-deleted cell line)”. Further, the “SAM/MTA Ratio” value on PRMT5 [3] (setting [4]) is “A (a Ki ratio greater than or equal to 10 fold between the Ki in the presence of SAM and the Ki in the presence of MTA)”.
As for `Cc1ncoc1COc1ccc2c(c1Br)CCN(C[C@@H](O)CNC(=O)c1ccnc(NC3CCCC3)c1)C2` [Compound 350, (S)—N-(3-(5-bromo-6-((4-methyloxazol-5-yl)methoxy)-3,4-dihydroisoquinolin-2(1H)-yl)-2-hydroxypropyl)-2-(cyclopentylamino)isonicotinamide], the IC50 in the assay with HAP1 MTAP-deleted is ≥ 10000 nM; on PRMT5 [1], 50 to 500 nM; in the assay with HAP1 MTAP-intact, ≥ 10000 nM; at PRMT5 [2] (read-out: No Co-factor IC50) it was ≥ 5000 nM; on PRMT5 [3], 50 to 500 nM. Moreover, the “MTAP Intact/Deleted Ratio” value in the assay with HAP1 MTAP-deleted is “C* (an IC50 ratio of less than 3 fold between the IC50 in the HAP1 MTAP-intact cell line and the HAP1 MTAP-deleted cell line)”. Besides, the “SAM/MTA Ratio” value at PRMT5 [3] (setting [5]) was “A (a Ki ratio greater than or equal to 10 fold between the Ki in the presence of SAM and the Ki in the presence of MTA)”.
Take `CC(=O)N1CCC(Nc2cc(C(=O)NC[C@H](O)CN3CCc4c(ccc(OCc5cn[nH]c5)c4C)C3)ncn2)CC1` [Compound 253, 6-[(1-acetyl-4-piperidyl)amino]-N-[(2S)-2-hydroxy-3-[5-methyl-6-(1H-pyrazol-4-ylmethoxy)-3,4-dihydro-1H-isoquinolin-2-yl]propyl]pyrimidine-4-carboxamide]: the IC50 lay in the range of 1000 to 10000 nM in the assay on HAP1 MTAP-deleted; 500 to 5000 nM at PRMT5 [1]; 1000 to 10000 nM in the assay with HAP1 MTAP-intact; 500 to 5000 nM at PRMT5 [2] (read-out: No Co-factor IC50); 50 to 500 nM at PRMT5 [3]. Further, the “MTAP Intact/Deleted Ratio” value with HAP1 MTAP-deleted is “C* (an IC50 ratio of less than 3 fold between the IC50 in the HAP1 MTAP-intact cell line and the HAP1 MTAP-deleted cell line)”. Moreover, the “SAM/MTA Ratio” value on PRMT5 [3] (setting [5]) was “A (a Ki ratio greater than or equal to 10 fold between the Ki in the presence of SAM and the Ki in the presence of MTA)”.
Turning to `O=C(NC[C@H](O)CN1CCc2c(ccc(OCc3cnco3)c2Cl)C1)c1ccnc(NC2CC(F)(F)C2)c1` [Compound 357, (S)—N-(3-(5-chloro-6-(oxazol-5-ylmethoxy)-3,4-dihydroisoquinolin-2(1H)-yl)-2-hydroxypropyl)-2-((3,3-difluorocyclobutyl)amino)isonicotinamide], the concentration for half-maximal inhibition (IC50) was ≥ 10000 nM in the assay on HAP1 MTAP-deleted; 500 to 5000 nM on PRMT5 [1]; ≥ 10000 nM in the assay with HAP1 MTAP-intact; ≥ 5000 nM on PRMT5 [2] (read-out: No Co-factor IC50); 50 to 500 nM at PRMT5 [3]. Further, the “MTAP Intact/Deleted Ratio” value with HAP1 MTAP-deleted is “C* (an IC50 ratio of less than 3 fold between the IC50 in the HAP1 MTAP-intact cell line and the HAP1 MTAP-deleted cell line)”. Further, the “SAM/MTA Ratio” value at PRMT5 [3] (setting [5]) was “A (a Ki ratio greater than or equal to 10 fold between the Ki in the presence of SAM and the Ki in the presence of MTA)”.
With `Cc1ncoc1COc1cc2c(cc1F)CN(C[C@@H](O)CNC(=O)c1ccnc(NC3CCC3)c1)CC2` [Compound 266, (S)-2-(cyclobutylamino)-N-(3-(7-fluoro-6-((4-methyloxazol-5-yl)methoxy)-3,4-dihydroisoquinolin-2(1H)-yl)-2-hydroxypropyl)isonicotinamide], the IC50 with HAP1 MTAP-deleted fell in the range of 1000 to 10000 nM; on PRMT5 [1], 50 to 500 nM; in the assay with HAP1 MTAP-intact it was 1000 to 10000 nM; at PRMT5 [2] (read-out: No Co-factor IC50) it was 500 to 5000 nM; on PRMT5 [3], 50 to 500 nM. Also, the “MTAP Intact/Deleted Ratio” value in the assay with HAP1 MTAP-deleted is “B* (an IC50 ratio greater than or equal to 3 fold but lower than 10 fold between the IC50 in the HAP1 MTAP-intact cell line and the HAP1 MTAP-deleted cell line)”. Also, the “SAM/MTA Ratio” value on PRMT5 [3] (setting [5]) was “A (a Ki ratio greater than or equal to 10 fold between the Ki in the presence of SAM and the Ki in the presence of MTA)”.
On to `COc1ccc(C(=O)N2CCc3cc(C(=O)NC[C@H](O)CN4CCc5cc(OCc6ocnc6C)ccc5C4)ccc3C2)cc1` [Compound 498, (S)—N-(2-hydroxy-3-(6-((4-methyloxazol-5-yl)methoxy)-3,4-dihydroisoquinolin-2(1H)-yl)propyl)-2-(4-methoxybenzoyl)-1,2,3,4-tetrahydroisoquinoline-6-carboxamide], for which the IC50 is < 1000 nM in the assay with HAP1 MTAP-deleted; 50 to 500 nM at PRMT5 [1]; 1000 to 10000 nM in the assay with HAP1 MTAP-intact; 500 to 5000 nM against PRMT5 [2]; 50 to 500 nM on PRMT5 [3]. For the same compound, in the assay on HAP1 MTAP-deleted, the “MTAP Intact/Deleted Ratio” value was “B* (an IC50 ratio greater than or equal to 3 fold but lower than 10 fold between the IC50 in the HAP1 MTAP-intact cell line and the HAP1 MTAP-deleted cell line)”. Further, at PRMT5 [3] (setting [4]), the “SAM/MTA Ratio” value was “A (a Ki ratio greater than or equal to 10 fold between the Ki in the presence of SAM and the Ki in the presence of MTA)”.
